Assay results as given in ChEMBL document CHEMBL1201862, “PubChem BioAssay data set” (2004).
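Exposure lasted 48 hours, with cells grown in 96-well plates and compounds tested at five concentrations. GI50 marks 50% less growth.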 Calls of active or inactive are those of the source. No stated cut-off is given here; in the data, active = GI50 up to about 1.1 µM and inactive = higher.

How the values were obtained:
Assay in all cases: NCI tumour cell line growth inhibition, 48 h
[1] = test system: DU-145
[2] = test system: CCRF-CEM
[3] = test system: CAKI-1
[4] = test system: MDA-MB-435
[5] = test system: KM12
[6] = test system: Malme-3M
[7] = test system: HCT-116
[8] = test system: NCI/ADR-RES
[9] = test system: A498
[10] = test system: SK-MEL-28
[11] = test system: UACC-62
[12] = test system: BT-549
[13] = test system: OVCAR-4
[14] = test system: LOX IMVI
[15] = test system: SF-295
[16] = test system: ACHN
[17] = test system: OVCAR-5
[18] = test system: RPMI-8226
[19] = test system: SR

Compound | GI50 [1] | GI50 [2] | GI50 [3] | GI50 [4] | GI50 [5] | GI50 [6] | GI50 [7] | GI50 [8] | GI50 [9] | GI50 [10] | GI50 [11] | GI50 [12] | GI50 [13] | GI50 [14] | GI50 [15] | GI50 [16] | GI50 [17] | GI50 [18] | GI50 [19]
COC(=O)c1c(-c2ccc(Cl)cc2)cc2c3ccccc3n(C)c2c1C(=O)OC | > 100 µM (inactive) | 7.85 µM (inactive) | > 100 µM (inactive) | > 100 µM (inactive) | > 100 µM (inactive) | > 100 µM (inactive) | > 100 µM (inactive) | > 100 µM (inactive) | > 100 µM (inactive) | > 100 µM (inactive) | > 100 µM (inactive) | > 100 µM (inactive) | > 100 µM (inactive) | > 100 µM (inactive) | > 100 µM (inactive) | > 100 µM (inactive) | > 100 µM (inactive) |  | 
CCN(CCC#N)C(=O)Nc1ccccc1 | > 100 µM (inactive) | > 100 µM (inactive) | > 100 µM (inactive) | > 100 µM (inactive) | 86.7 µM (inactive) | 62.7 µM (inactive) | > 100 µM (inactive) | > 100 µM (inactive) |  | > 100 µM (inactive) | > 100 µM (inactive) | > 100 µM (inactive) | > 100 µM (inactive) | > 100 µM (inactive) | > 100 µM (inactive) | > 100 µM (inactive) | > 100 µM (inactive) | > 100 µM (inactive) | 
O=C(O)CCCc1ccc2c(c1)C(C(=O)O)CC2 (stereo not given) | > 100 µM (inactive) | > 100 µM (inactive) | > 100 µM (inactive) |  | > 100 µM (inactive) | > 100 µM (inactive) | > 100 µM (inactive) | > 100 µM (inactive) |  | > 100 µM (inactive) | > 100 µM (inactive) | 76 µM (inactive) | > 100 µM (inactive) | > 100 µM (inactive) | > 100 µM (inactive) | > 100 µM (inactive) | > 100 µM (inactive) | > 100 µM (inactive) | > 100 µM (inactive)
CC1(C)[C@@H]2C[C@H]1C(Cc1cccc(C[C@H]3c4cc(-c5ccccn5)ncc4[C@H]4C[C@@H]3C4(C)C)c1)c1cc(-c3ccccn3)ncc12 (stereo not given in full) | 0.993 µM (active) | 0.337 µM (active) | 1.74 µM (inactive) | 0.548 µM (active) | 0.647 µM (active) |  | 0.428 µM (active) | 4.06 µM (inactive) | 3.51 µM (inactive) | 4.93 µM (inactive) | 0.499 µM (active) | 5.06 µM (inactive) | 4.58 µM (inactive) | 0.556 µM (active) | 0.92 µM (active) | 0.328 µM (active) | 1.12 µM (active) | 1.39 µM (inactive) | 
O=C(O)c1ccccc1C(=O)Nn1cnnc1 | > 100 µM (inactive) | > 100 µM (inactive) |  | > 100 µM (inactive) | > 100 µM (inactive) |  | > 100 µM (inactive) | > 100 µM (inactive) |  | > 100 µM (inactive) | > 100 µM (inactive) | > 100 µM (inactive) | > 100 µM (inactive) | > 100 µM (inactive) | > 100 µM (inactive) | > 100 µM (inactive) | > 100 µM (inactive) | > 100 µM (inactive) | 
Cc1cc(S(=O)(=O)Nc2nc3ccsc3c(=O)n2N)c(S)cc1Cl | > 100 µM (inactive) | 71.9 µM (inactive) | > 100 µM (inactive) | 83.8 µM (inactive) | 80.7 µM (inactive) | 81.1 µM (inactive) | 94.8 µM (inactive) | 85.3 µM (inactive) |  | > 100 µM (inactive) | 38.7 µM (inactive) | > 100 µM (inactive) | 68.1 µM (inactive) | 78.9 µM (inactive) | 31.3 µM (inactive) | 56.9 µM (inactive) | 35.2 µM (inactive) | > 100 µM (inactive) | 
